Assay results reported in patent US20240391862A1, “(1,4,5-TRISUBSTITUTED-1H-PYRAZOL-3-YL)OXY-2-ALKOXY ALKYL ACIDS AND THEIR DERIVATIVES, THEIR SALTS AND THEIR USE AS HERBICIDAL AGENTS” (Bayer AKtiengesellschaft, priority 2021, published 2024).

Key:
Assay in all cases: Post-emergence herbicidal effect, greenhouse pot test
SETVI = type: in vivo, Setaria viridis; details: Setaria viridis, 504 h, read-out: Post-emergence effect against SETVI in %
From the text: (§1) • ALOMY: Alopecurus myosuroides SETVI: Setaria viridis • AVEFA: Avena fatua POLCO: Fallopia convolvulus • AMARE: Amaranthus retroflexus ECHCG: Echinochloa crus-galli • LOLRJ: Lolium rigidum STEME: Stellaria media • VERPE: Veronica persica MATIN: Tripleurospermum inodorum • DIGSA: Digitaria sanguinalis ABUTH: Abutylon threophrasti • TRZAS: Triticum aestivum VIOTR: Viola tricolor • BRSNW: Brassica napus ZEAMX: Zea mays • PHBPU: Ipomoea purpurea GLXMA: Glycine max • ORYSA: Oryza sativa HORMU: Hordeum murinum
(§2) Seeds of monocotyledonous and dicotyledonous weeds and crop plants are placed in sandy loam in plastic or organic planting pots, covered with soil and cultivated in a greenhouse under controlled growth conditions. 2 to 3 weeks after sowing, the trial plants are treated at the one-leaf stage. The compounds of the invention, formulated in the form of wettable powders (WP) or as emulsion concentrates (EC), are then sprayed onto the green parts of the plants as aqueous suspension or emulsion with addition of 0.5% additive at a water application rate of 600 l/ha (converted). After the test plants have been kept in the greenhouse under optimum growth conditions for about 3 weeks, the activity of the preparations is rated visually in comparison to untreated controls. For example, 100% activity=the plants have died, 0% activity=like control plants.
(§3) Tables 20a to 38c below show the effects/crop compatibilities of selected compounds of the general formula (I) on various harmful plants at an application rate corresponding to 20 to 320 g/ha, which were obtained by the trial procedure specified above.

ALOMY = type: in vivo, Alopecurus myosuroides; details: Alopecurus myosuroides, 504 h, visual rating about 3 weeks after treatment, read-out: Post-emergence effect against ALOMY
From the text: as §1, §2, §3

AMARE = type: in vivo, Amaranthus retroflexus; details: Amaranthus retroflexus, 504 h, visual rating about 3 weeks after treatment, read-out: Post-emergence effect against AMARE
From the text: as §1, §2, §3

VIOTR = type: in vivo, Viola tricolor; details: Viola tricolor, 504 h, read-out: Post-emergence effect against VIOTR in %
From the text: as §1, §2, §3

ABUTH = type: in vivo, Abutilon theophrasti; details: Abutilon theophrasti, 504 h, visual rating about 3 weeks after treatment, read-out: Post-emergence effect against ABUTH
From the text: as §1, §2, §3

AVEFA = type: in vivo, Avena fatua; details: Avena fatua, 504 h, visual rating about 3 weeks after treatment, read-out: Post-emergence effect against AVEFA
From the text: as §1, §2, §3

ECHCG = type: in vivo, Echinochloa crus-galli; details: Echinochloa crus-galli, 504 h; for pest or weed control at 20 g/ha: visual rating about 3 weeks after treatment, read-out: Post-emergence effect against ECHCG; for pest or weed control at 80 g/ha / pest or weed control at 320 g/ha: read-out: Post-emergence effect against ECHCG in %
From the text: as §1, §2, §3

PHBPU = type: in vivo, Ipomoea purpurea; details: Ipomoea purpurea, 504 h, read-out: Post-emergence effect against PHBPU in %
From the text: as §1, §2, §3

LOLRI = type: in vivo, Lolium rigidum; details: Lolium rigidum, 504 h, read-out: Post-emergence effect against LOLRI in %
From the text: as §1, §2, §3

DIGSA = type: in vivo, Digitaria sanguinalis; details: Digitaria sanguinalis, 504 h, visual rating about 3 weeks after treatment, read-out: Post-emergence effect against DIGSA
From the text: as §1, §2, §3

VERPE = type: in vivo, Veronica persica; details: Veronica persica, 504 h, read-out: Post-emergence effect against VERPE in %
From the text: as §1, §2, §3

POLCO = type: in vivo, Fallopia convolvulus; details: Fallopia convolvulus, 504 h, read-out: Post-emergence effect against POLCO in %
From the text: as §1, §2, §3

MATIN = type: in vivo, Tripleurospermum inodorum; details: Tripleurospermum inodorum, 504 h, read-out: Post-emergence effect against MATIN in %
From the text: as §1, §2, §3

SMILES | pest or weed control at 80 g/ha (SETVI) [%] | pest or weed control at 320 g/ha (SETVI) [%] | pest or weed control at 320 g/ha (ALOMY) [%] | pest or weed control at 80 g/ha (AMARE) [%] | pest or weed control at 320 g/ha (AMARE) [%] | pest or weed control at 80 g/ha (VIOTR) [%] | pest or weed control at 320 g/ha (VIOTR) [%] | pest or weed control at 80 g/ha (ABUTH) [%] | pest or weed control at 320 g/ha (ABUTH) [%] | pest or weed control at 80 g/ha (AVEFA) [%] | pest or weed control at 320 g/ha (AVEFA) [%] | pest or weed control at 80 g/ha (ECHCG) [%] | pest or weed control at 320 g/ha (ECHCG) [%] | pest or weed control at 80 g/ha (PHBPU) [%] | pest or weed control at 320 g/ha (PHBPU) [%] | pest or weed control at 320 g/ha (LOLRI) [%] | pest or weed control at 320 g/ha (DIGSA) [%] | pest or weed control at 20 g/ha (VERPE) [%] | pest or weed control at 80 g/ha (VERPE) [%] | pest or weed control at 320 g/ha (VERPE) [%] | further results
COC(=O)C(OC)Oc1nn(-c2ccccc2)c(-c2ccc(F)nc2)c1Br (stereo not shown) [Example I-30] | 90 | 90 | 90 | 80 | 80 | 90 | 90 | 80 | 90 | 90 | 90 | 90 | 90 | 80 | 90 | 90 | 90 | 80 | 80 | 90 | pest or weed control at 20 g/ha (SETVI): 80%; pest or weed control at 20 g/ha (VIOTR): 80%; pest or weed control at 20 g/ha (ECHCG): 80%; pest or weed control at 80 g/ha (DIGSA; 80 g/ha): 90%; pest or weed control at 80 g/ha (POLCO): 80%; pest or weed control at 320 g/ha (POLCO): 80%; pest or weed control at 80 g/ha (MATIN): 80%; pest or weed control at 320 g/ha (MATIN): 90%
CCOC(=O)C(OC)Oc1nn(-c2cc(F)ccc2F)c(-c2cncc(F)c2)c1C1CC1 (stereo not shown) [Example I-37] | 90 | 90 | 100 | 90 | 90 | 90 | 90 | 90 | 90 | 80 | 90 | 100 | 100 | 90 | 90 | 100 | 90 | 90 | 100 | 100 | pest or weed control at 80 g/ha (ALOMY): 100%; pest or weed control at 20 g/ha (VIOTR): 80%; pest or weed control at 20 g/ha (ABUTH; 20 g/ha): 80%; pest or weed control at 20 g/ha (PHBPU): 90%; pest or weed control at 80 g/ha (LOLRI): 90%; pest or weed control at 80 g/ha (POLCO): 90%; pest or weed control at 320 g/ha (POLCO): 90%; pest or weed control at 20 g/ha (MATIN): 80%; pest or weed control at 80 g/ha (MATIN): 90%; pest or weed control at 320 g/ha (MATIN): 90%
COC(=O)C(OC)Oc1nn(-c2cc(F)ccc2F)c(-c2cncc(F)c2)c1C1CC1 (stereo not shown) [Example I-111] | 80 | 80 | 90 | 80 | 80 | 80 | 80 | 80 | 90 | 90 | 90 | 90 | 90 | 90 | 90 | 90 | 80 | 80 | 80 | 80 | pest or weed control at 20 g/ha (SETVI): 80%; pest or weed control at 80 g/ha (ALOMY): 80%; pest or weed control at 20 g/ha (ECHCG): 80%; pest or weed control at 20 g/ha (PHBPU): 80%; pest or weed control at 80 g/ha (LOLRI): 90%; pest or weed control at 80 g/ha (POLCO): 80%; pest or weed control at 320 g/ha (POLCO): 80%; pest or weed control at 20 g/ha (MATIN): 80%; pest or weed control at 80 g/ha (MATIN): 80%; pest or weed control at 320 g/ha (MATIN): 80%
